Series [1] in a line: Bioavailability in rat after 30 minutes at an oral dose of 2.5 mg/kg. Particulars: plasma. Type of series: ADME, organism-based.
Series [2] is described as follows: Bioavailability in rat after 120 minutes at an oral dose of 2.5 mg/kg. Type of series: ADME, organism-based. Particulars: plasma.
For series [3], the target named is T1, Cholecystokinin receptor type A (Rattus norvegicus, UniProt P30551).
T1 sequence (P30551 whole entry): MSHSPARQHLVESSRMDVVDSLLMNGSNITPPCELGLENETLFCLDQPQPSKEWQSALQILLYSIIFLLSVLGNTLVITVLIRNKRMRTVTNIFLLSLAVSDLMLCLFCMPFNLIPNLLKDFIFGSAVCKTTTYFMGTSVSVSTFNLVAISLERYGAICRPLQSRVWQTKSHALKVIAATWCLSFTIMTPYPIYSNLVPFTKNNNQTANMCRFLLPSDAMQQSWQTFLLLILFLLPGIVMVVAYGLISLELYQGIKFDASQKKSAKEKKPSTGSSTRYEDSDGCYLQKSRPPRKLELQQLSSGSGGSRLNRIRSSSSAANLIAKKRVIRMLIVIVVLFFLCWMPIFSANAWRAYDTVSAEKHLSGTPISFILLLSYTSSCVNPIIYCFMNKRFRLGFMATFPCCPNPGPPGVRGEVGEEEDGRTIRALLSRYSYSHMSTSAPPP
As to the kind of experiment: (§1) Inhibition of binding of [125I]CCK-8 to cholecystokinin type A receptor in rat pancreatic tissue.

For series [4], the species on record is Cavia porcellus. As to the kind of experiment: Selectivity ratio between CCK-B and CCK-A receptor. Also on record: reference not given here.
Series [5] concerns the target T2, Cholecystokinin receptor type A (Rattus norvegicus) (UniProt P30551).
T2 sequence (whole entry): T1 sequence (P30551 whole entry)
The description is as §1. Conditions: concentration not given here. On the set-up: concentration or dose not given beside the values.

Series [6] in a line: Inhibition of binding of [125I]-CCK-8 to the cholecystokinin type B receptor.
Series [7] deals with Mus musculus. Nature of the series: Effective dose required to antagonise pentagastrin stimulated acid secretion in mouse when administered iv 5 min prior to pentagastrin. Type of series: functional.
The test system of series [8] is Mus musculus. Nature of the series: Effective dose required to antagonise pentagastrin stimulated acid secretion in mouse when administered iv 60-80 min prior to pentagastrin. In kind it is functional.
Series [9] deals with Mus musculus. As to the kind of experiment: Effective dose required to antagonise pentagastrin stimulated acid secretion in mouse when administered orally 85-100 min prior to pentagastrin. In kind it is functional. Conditions: po.

A word on the IC50: it is the concentration at which inhibition is half-maximal. A word on the inhibition: it is how much of the control response was suppressed. As usually defined, the ED50 is the dose at which the effect has come halfway, by size or by number of responders.

In [1], `CN1C(=O)C(NC(=O)Nc2cccc(C(F)(F)F)c2)N=C(c2ccccc2)c2ccccc21` (stereo not drawn) gave a concentration at 0.5 h of 120 ng/mL. This compound came in with a concentration at 2 h in [2] of 102 ng/mL. In series [3], this compound gave an IC50 of 740 nM. The Selectivity ratio in [4] is 195.
As for `CN1C(=O)C(NC(=O)Nc2ccc(Cl)nc2)N=C(c2ccccc2)c2ccccc21` (stereo not drawn), the inhibition in [5] was found to be 23%. In addition, in series [4], the Selectivity ratio was > 65.
Take `CN1C(=O)C(NC(=O)Nc2ccc3c(c2)OCO3)N=C(c2ccccc2)c2ccccc21` (stereo not drawn): in series [5], the inhibition was > 3%. In series [4], the Selectivity ratio is > 100.
For the compound `CCN(CC)C[C@H](O)CN1C(=O)C(NC(=O)Nc2ccc(Cl)cc2)N=C(c2ccccc2)c2ccccc21` (mixture of isomers), the inhibition in series [5] was > 14%. In addition, the Selectivity ratio in [4] is > 7.
On to `O=C(Nc1ccc(Cl)cc1)NC1N=C(c2ccccc2)c2ccccc2N(C[C@@H](O)CCl)C1=O` (mixture of isomers), for which the inhibition in series [5] was > 15%. Moreover, the Selectivity ratio in series [4] was > 500.
For the compound `O=C(Nc1ccc(Cl)cc1)NC1N=C(c2ccccc2)c2ccccc2N(C[C@@H](O)CN2CCCC2)C1=O` (mixture of isomers), the inhibition in series [5] is > 16%. Moreover, the Selectivity ratio in series [4] was > 10.
Consider `O=C(Nc1ccc(Cl)cc1)NC1N=C(c2ccccc2)c2ccccc2N(C[C@@H](O)CO)C1=O` (mixture of isomers), for which the inhibition in [5] was > 9%. The Selectivity ratio in [4] was > 30.
In series [3], `COc1cccc(NC(=O)NC2N=C(c3ccccc3)c3ccccc3N(CCC(=O)O)C2=O)c1` (racemic) had an IC50 of 9 nM. Further, the Selectivity ratio in [4] came out at 0.036.
Regarding `CN1C(=O)C(NC(=O)Nc2ccncc2)N=C(c2ccccc2)c2ccccc21` (racemic), the IC50 in [3] was determined as 1510 nM. Further, the Selectivity ratio in [4] amounted to 1.4.
`Cc1ccc(NC(=O)NC2N=C(c3ccccc3)c3ccccc3N(CC(=O)Nc3ccncc3)C2=O)cc1` (racemic): in [3], the IC50 is 4000 nM. In addition, the Selectivity ratio in series [4] turned out to be 21.
In turn, `Cc1cccc(NC(=O)NC2N=C(c3ccncc3)c3ccccc3N(C)C2=O)c1` (racemic) came in with an IC50 in series [3] of 390 nM. Moreover, the Selectivity ratio in series [4] worked out at 7.5.
In the case of `CN1C(=O)C(NC(=O)Nc2cccc(-c3ccccc3)c2)N=C(c2ccccc2)c2ccccc21` (racemic), the IC50 in series [3] stood at 123 nM. The Selectivity ratio in series [4] was 1.
The compound `CCN(CC)CC(=O)OCCN1C(=O)C(NC(=O)Nc2cccc(C)c2)N=C(c2ccccc2)c2ccccc21` (racemic) gave an IC50 in [3] of 190 nM. For the same compound, the Selectivity ratio in series [4] was 34.
In turn, `CN1C(=O)C(NC(=O)Nc2cccc3ccccc23)N=C(c2ccccc2)c2ccccc21` (racemic) yielded a half-maximal inhibitory concentration (IC50) in [3] of 68 nM. Moreover, the Selectivity ratio in [4] worked out at 0.9.
`COc1cccc(NC(=O)NC2N=C(c3ccccc3)c3ccccc3N(CC(=O)N3CCN(C)CC3)C2=O)c1` (racemic) came in with an IC50 in series [3] of 1400 nM. For the same compound, the Selectivity ratio in series [4] turned out to be 318.
`Cc1cccc(NC(=O)NC2N=C(c3ccccc3)c3ccccc3N(CCN(C)C)C2=O)c1` (racemic) registered a concentration at 0.5 h in [1] of 75 ng/mL. The compound further registered an IC50 in [3] of 1890 nM. Besides, the Selectivity ratio in series [4] stood at 73.
In the case of `O=C(Nc1ccc(Cl)cc1)NC1N=C(c2ccccc2)c2ccccc2NC1=O` (racemic), the IC50 in series [3] was determined as 110 nM. The Selectivity ratio in series [4] came to 0.4.
For the compound `Cc1cccc(NC(=O)NC2N=C(c3ccccc3)c3ccncc3N(C)C2=O)c1` (racemic), the IC50 in series [3] came to 144 nM. In addition, in series [4], the Selectivity ratio was < 0.01.
With `CCN(CC)C(=O)C(C)N1C(=O)C(NC(=O)Nc2ccc(Cl)cc2)N=C(c2ccccc2)c2ccccc21` (racemic), the IC50 in series [3] turned out to be 410 nM. For the same compound, in [4], the Selectivity ratio was determined as 19.
The compound `CCOC(=O)CCN1C(=O)C(NC(=O)Nc2cccc(OC)c2)N=C(c2ccccc2)c2ccccc21` (racemic) had an IC50 in series [3] of 340 nM. Further, the Selectivity ratio in series [4] is 340.
`CN1C(=O)C(NC(=O)Nc2ccc3ncccc3c2)N=C(c2ccccc2)c2ccccc21` (racemic) yielded an IC50 in series [3] of 310 nM. Also, in [4], the Selectivity ratio was 6.
`COc1ccc(NC(=O)NC2N=C(c3ccccc3)c3ccccc3N(C)C2=O)cc1` (racemic): the IC50 in series [3] worked out at 165 nM. Besides, in series [4], the Selectivity ratio was 6.
On the same counts, the results for `COc1cccc(NC(=O)NC2N=C(c3ccccc3)c3ccccc3N(CC(=O)N3CCCC3)C2=O)c1` (racemic) are 170 nM and 708.
For `CCN(CC)C(=O)CN1C(=O)C(NC(=O)Nc2cccc(C)c2)N=C(c2ccccn2)c2ccccc21` (racemic) the same measures were 435 nM and 776.
On the same counts, the results for `Cc1cccc(NC(=O)NC2N=C(c3ccccc3)c3ccccc3N(CC(=O)Nc3ccncc3)C2=O)c1` (racemic) are 1100 nM and 23.
Take `Cc1cccc(NC(=O)NC2N=C(c3cccnc3)c3ccccc3N(C)C2=O)c1` (racemic): the concentration at 0.5 h in [1] was 219 ng/mL. Moreover, the concentration at 2 h in series [2] came out at 191 ng/mL. For the same compound, the IC50 in series [3] turned out to be 2300 nM. For the same compound, the Selectivity ratio in series [4] was 25.
Take `Cc1cccc(NC(=O)NC2N=C(c3ccccc3)c3cnccc3N(C)C2=O)c1` (racemic): in [3], the IC50 was 61.4 nM. Besides, in series [4], the Selectivity ratio was 0.1.
`Cc1cccc(NC(=O)NC2N=C(c3ccccc3)c3ccccc3N(CCO)C2=O)c1` (racemic) displayed a concentration at 0.5 h in series [1] of 156 ng/mL. This compound also gave a concentration at 2 h in series [2] of 95 ng/mL. In series [3], the IC50 was 270 nM. For the same compound, the Selectivity ratio in series [4] is 6.
`CCOC(=O)CN1C(=O)C(NC(=O)c2ccc(Cl)cc2)N=C(c2ccccc2F)c2ccccc21` (racemic): in series [4], the Selectivity ratio worked out at 0.06. For the same compound, the IC50 in [6] was 1900 nM.
Take `CN1C(=O)C(NC(=O)Nc2ccc(Cl)cc2)N=C(c2ccccc2)c2ccccc21` (racemic): the IC50 in series [3] was found to be 1200 nM. In addition, in series [4], the Selectivity ratio is 15.
With `CCOC(=O)CN1C(=O)C(NC(=O)Nc2ccc(Cl)cc2)N=C(c2ccccc2F)c2ccccc21` (racemic), the ED50 is 0.7 mg/kg in series [7], > 2 mg/kg in [8] and 6 mg/kg in [9]. Moreover, in series [4], the Selectivity ratio worked out at 183. This compound also gave an IC50 in series [6] of 1.2 nM.
For `O=C(Nc1ccc(Cl)cc1)NC1N=C(c2ccccc2)c2ccccc2N(CC(=O)N2CCCC2)C1=O` (racemic), in series [3], the IC50 worked out at 1000 nM. For the same compound, the Selectivity ratio in series [4] amounted to 625.
`Cc1cccc(NC(=O)NC2N=C(c3ccccc3)c3ccccc3N(CC(=O)N3CCN(C)CC3)C2=O)c1` (racemic) came in with an IC50 in series [3] of 760 nM. For the same compound, the Selectivity ratio in [4] was 217.
Turning to `Cc1cccc(NC(=O)N[C@@H]2N=C(c3ccccc3)c3ccccc3N(C)C2=O)c1` [L-365260], in series [1], the concentration at 0.5 h came out at 172 ng/mL. In [2], this compound yielded a concentration at 2 h of 194 ng/mL.

(Values after ChEMBL document CHEMBL1126970, “Development of 1,4-benzodiazepine cholecystokinin type B antagonists” (J Med Chem, 1993).)
